Assay results published in ChEMBL document CHEMBL1144445, “Design, synthesis and antiviral activity of novel 4,5-disubstituted 7-(beta-D-ribofuranosyl)pyrrolo[2,3-d][1,2,3]triazines and the novel 3-amino-5-methyl-1-(beta-D-ribofuranosyl)- and 3-amino-5-methyl-1-(2-deoxy-beta-D-ribofuranosyl)-1,5-dihydro-1,4,5,6,7,8-hexaazaacenaphthylene as analogues of …” (J Med Chem, 2005).

Assays:
Human alphaherpesvirus 1 = experiment: Inhibitory concentration against human herpes simplex virus type 1 using ELISA test; format: functional, organism-based
HFF = experiment: Visual cytotoxicity was determined in uninfected HFF cells using plaque assay; format: functional, cell-based; details: Homo sapiens
KB = experiment: Inhibitory concentration was determined for KB cell growth; format: functional, cell-based; details: Homo sapiens
Human betaherpesvirus 5 [1] = experiment: Inhibitory concentration against human cytomegalovirus using plaque assay; format: functional, organism-based
[2] = system: Human immunodeficiency virus 1; experiment: Inhibitory concentration against human immunodeficiency virus type 1; format: functional, organism-based
Human betaherpesvirus 5 [3] = experiment: Inhibitory concentration against human cytomegalovirus using yield-reduction assay; format: functional

## NC(=O)c1cn([C@@H]2O[C@H](COC(=O)c3ccccc3)[C@@H](OC(=O)c3ccccc3)[C@H]2OC(=O)c2ccccc2)c(N)c1C(N)=O
Human alphaherpesvirus 1
  IC50: > 10 µM
HFF
  IC50: > 10 µM
KB
  IC50: > 10 µM
Human betaherpesvirus 5 [1]
  IC50: > 10 µM

## Cc1ccc(C(=O)OC[C@H]2O[C@@H](n3cc(C(N)=O)c(C(N)=O)c3[N+](=O)[O-])C[C@@H]2OC(=O)c2ccc(C)cc2)cc1
Human alphaherpesvirus 1
  IC50: > 100 µM
HFF
  IC50: 32 µM
Human betaherpesvirus 5 [1]
  IC50: 32 µM

## COC(=N)c1cn([C@@H]2O[C@H](CO)[C@@H](O)[C@H]2O)c2nnnc(N)c12
Human alphaherpesvirus 1
  IC50: > 100 µM
HFF
  IC50: 21 µM
KB
  IC50: 20 µM
Human betaherpesvirus 5 [1]
  IC50: 32 µM

## CCOC(=O)c1cn([C@@H]2O[C@H](CO)[C@@H](O)[C@H]2O)c2nnnc(N)c12
Human alphaherpesvirus 1
  IC50: > 100 µM
HFF
  IC50: > 100 µM
KB
  IC50: 80 µM
Human betaherpesvirus 5 [1]
  IC50: > 100 µM

## N/C(=N\O)c1cn([C@@H]2O[C@H](CO)[C@@H](O)[C@H]2O)c2nnnc(N)c12
Human alphaherpesvirus 1
  IC50: 0.9 µM
HFF
  IC50: 6.6 µM
KB
  IC50: 1.5 µM
Human betaherpesvirus 5 [1]
  IC50: < 2 µM

## N#Cc1cn([C@@H]2O[C@H](COC(=O)c3ccccc3)[C@@H](OC(=O)c3ccccc3)[C@H]2OC(=O)c2ccccc2)c2nnnc(-n3cncn3)c12
Human alphaherpesvirus 1
  IC50: > 10 µM
HFF
  IC50: > 10 µM
KB
  IC50: > 10 µM
Human betaherpesvirus 5 [1]
  IC50: > 10 µM

## CN1N=C(N)c2cn([C@@H]3O[C@H](CO)[C@@H](O)[C@H]3O)c3nnnc1c23
Human alphaherpesvirus 1
  IC50: > 100 µM
HFF
  IC50: 10 µM
KB
  IC50: 2.5 µM
[2]
  IC50: 0.6 µM
Human betaherpesvirus 5 [1]
  IC50: 14 µM

## NC(=O)c1cn([C@@H]2O[C@H](COC(=O)c3ccccc3)[C@@H](OC(=O)c3ccccc3)[C@H]2OC(=O)c2ccccc2)c2nnnc(O)c12
Human alphaherpesvirus 1
  IC50: > 10 µM
HFF
  IC50: > 10 µM
KB
  IC50: > 10 µM
Human betaherpesvirus 5 [1]
  IC50: > 10 µM

## NC(=S)c1cn([C@@H]2O[C@H](CO)[C@@H](O)[C@H]2O)c2nnnc(N)c12
Human alphaherpesvirus 1
  IC50: 40 µM
HFF
  IC50: 32 µM
KB
  IC50: 2 µM
Human betaherpesvirus 5 [1]
  IC50: 8.5 µM

## Cc1ccc(C(=O)OC[C@H]2O[C@@H](n3cc(C(N)=O)c(C(N)=O)c3N)C[C@@H]2OC(=O)c2ccc(C)cc2)cc1
Human alphaherpesvirus 1
  IC50: > 100 µM
HFF
  IC50: 32 µM
KB
  IC50: 100 µM
Human betaherpesvirus 5 [1]
  IC50: 12 µM

## N=C(NN)c1cn([C@@H]2O[C@H](CO)[C@@H](O)[C@H]2O)c2nnnc(N)c12
Human alphaherpesvirus 1
  IC50: 80 µM
HFF
  IC50: 32 µM
KB
  IC50: 3 µM
Human betaherpesvirus 5 [3]
  IC90: 1 µM
Human betaherpesvirus 5 [1]
  IC50: 32 µM

## NC(=O)c1cn([C@@H]2O[C@H](CO)[C@@H](O)[C@H]2O)c2nnnc(N)c12
Human alphaherpesvirus 1
  IC50: 2.5 µM
HFF
  IC50: 0.3 µM
KB
  IC50: 0.08 µM
Human betaherpesvirus 5 [3]
  IC90: 0.4 µM
Human betaherpesvirus 5 [1]
  IC50: 0.3 µM

## CN(N)c1nnnc2c1c(C#N)cn2[C@@H]1O[C@H](COC(=O)c2ccccc2)[C@@H](OC(=O)c2ccccc2)[C@H]1OC(=O)c1ccccc1
Human alphaherpesvirus 1
  IC50: > 10 µM
HFF
  IC50: > 10 µM
KB
  IC50: > 10 µM
Human betaherpesvirus 5 [1]
  IC50: > 10 µM

## N#C/N=C(\N)c1cn([C@@H]2O[C@H](CO)[C@@H](O)[C@H]2O)c2nnnc(N)c12
Human alphaherpesvirus 1
  IC50: > 100 µM
HFF
  IC50: > 100 µM
KB
  IC50: 5 µM
Human betaherpesvirus 5 [1]
  IC50: > 100 µM
